# Entries after “also recorded” stand apart in the source; their conditions may differ.
# System: rats with middle cerebral artery occlusion (MCAO)
# Assay: Hindlimb placing test after MCAO
# Assay type: in vivo, Sprague Dawley rats
# Source text: In particular, the MCAO model in Sprague Dawley rats that was utilized in the experiments presented below mimics the conditions in human ischemic stroke. In this model, focal cerebral infarcts were made by permanent occlusion of the proximal right middle cerebral artery (MCA) using a modification of the method of Tamura et al. (No To Shinkei 1986; 38:747-51). Briefly, the temporalis muscle was bisected and reflected through an incision made midway between the eye and the ear canal. The proximal MCA was exposed through a subtemporal craniectomy without removing the zygomatic arch and without transecting the facial nerve.
# In this experiment, Sprague Dawley rats were anesthetized, subjected to a surgery resulting in middle cerebral artery occlusion (MCAO), treated with and without 4-aminopyridine and behavioral assessments were performed as described below. Treatment was initiated at 4 weeks after stroke.
# Dosing and Treatment: Rats were treated in accordance with the dosing schedule shown in Tables 2A, 2B, 3 and FIG. 2, with each Phase being a two week period of time. A solution of 4-AP was used in this experiment. Dosing was started at 4 weeks after ischemic event. 4-aminopyridine was dissolved in water for injection (WFI, Cellgro) and sterile filtered. Final concentrations of 0.315 mg/mL or 1.0 mg/mL of 4-aminopyridine were delivered at 2 mL/kg by gastric gavage, resulting in final doses of 0.63 mg/kg and 2 mg/kg respectively. Vehicle control treatment was WFI delivered at 2 mL/kg by gastric gavage. This study was divided into three treatment phases (1-3) with each randomized cohort of animals receiving a different dose level during each of the treatment phases. Starting on day 30 after MCAO (Day 30, start of phase 1), the animals received gavage dosing of solutions (2 mL/kg) approximately 12 hours apart, for a total of five doses. The same schedule was repeated with different treatment on Day 44 and Day 58 for phase 2 and 3 of the study, respectively. Animals were not treated during the 10 days between phases (washout period).
# Treatment groups: Dosing was started 4 weeks after MCAO surgery. During these 4 weeks, weekly behavioral assessments, as defined below, were performed. Two dose levels of 4-AP plus vehicle control were assessed, with treatment starting at 4 weeks after ischemic event. All dosing was via gastric gavage, volume not to exceed 2 mL/kg. Animals were given the first dose and behavioral assessments were performed starting 60 minutes after dosing. Animals then received the second dose that day at the appropriate time and b.i.d (preferably every 12 hours) thereafter for 2 more days (3 total days of dosing, 5 total doses). One hour after the 5th dose, animals were subjected to behavioral assessments as defined below. Following the final behavioral assessment, drug was withdrawn for 10 or 11 days, behavior was re-assessed, and then animals were re-challenged with a cross-over treatment (Phase 2 of Table 2B) as described in Tables 2A, 2B and 3, followed by the same behavioral testing and dosing regimen. This cross-over was repeated one more time as well (Phase 3 of Table 2B) (see FIG. 2).
# Behavioral test details: Behavioral evaluations were done by evaluators blinded to treatment assignment. Blinded assessments of sensorimotor function were performed just prior to MCAO surgery, 24 hours after MCAO surgery and weekly thereafter until the first phase of dosing using limb placing and body swing behavioral tests. As described above, behavioral assessments were timed exactly with dosing times. Animals were tested one hour after the 1st and 5th doses of each phase (i.e., Days 30 and 32 of the first phase, Days 44 and 46 of the second phase; and Days 58 and 60 of the third phase); animals were also tested during the washout periods on Days 42 and 56. Animals were given the first dose, behavioral assessments were performed starting 60 minutes later, and blood was collected 90 minutes after dosing. […]
structure (smiles),measurement,setting,value
"Nc1ccncc1 [4-AP, 4-aminopyridine]",Effect on hindlimb function (hindlimb placing test),"Example 2, low (0.63 mg/kg) or high (2 mg/kg) dose b.i.d. p.o., started 4 weeks post MCAO, dose-responsive, reversible",effective to improve hindlimb function; also recorded: significant improvement
same,Hindlimb Placing Total Score,"Group 1, D 32 post-MCAO, High 4-AP 2.0 mg/kg b.i.d. p.o., 1 h after 5th dose, group Mean, N=15, 0=normal, 6=maximally impaired",0.97
same,Hindlimb Placing Total Score,"Group 2 mean, D 58 after MCAO, phase 3, high dose (sequence lvh, b238, inferred)",0.83
same,Hindlimb Placing Total Score,"Group 2 mean, D 60 after MCAO, phase 3, high dose (sequence lvh, b238, inferred)",0.23
same,Hindlimb Placing Total Score,"Group 3 mean, D 44 after MCAO, phase 2",0.90
same,Hindlimb Placing Total Score,"Group 3 mean, D 46 after MCAO, phase 2",0.30

# — patent publication US20160058743A1, “METHODS FOR TREATING SENSORIMOTOR IMPAIRMENTS ASSOCIATED WITH CERTAIN TYPES OF STROKE USING AMINOPYRIDINES” (ACORDA THERAPEUTICS, INC., priority 2013, published 2016)
